In one assay the target is T1, His6-TEV-PPARγ-(234-505) (Homo sapiens, UniProt P37231).
T1 construct: The His6-TEV-PPARγ-(234-505) protein for assay was expressed and purified; TEV cleavage site (N); made in house
T1 sequence (P37231 234-505): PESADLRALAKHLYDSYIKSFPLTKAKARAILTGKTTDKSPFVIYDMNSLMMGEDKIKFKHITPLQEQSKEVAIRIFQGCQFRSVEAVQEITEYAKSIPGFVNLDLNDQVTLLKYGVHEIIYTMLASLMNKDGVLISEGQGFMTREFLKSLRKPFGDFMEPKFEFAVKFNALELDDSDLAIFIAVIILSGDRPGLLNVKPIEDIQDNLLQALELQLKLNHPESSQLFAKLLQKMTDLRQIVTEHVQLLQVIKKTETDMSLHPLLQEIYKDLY
The experiment in a line: TR-FRET Assay to Measure Co-R Peptide Recruitment to PPARγ. The class given is biochemical. As to conditions: Co-R peptide (SMRT-ID2) recruitment, top final concentration 20 μM, read-out: TR-FRET i-Ag, AC50. In short, it runs like this: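 Corepressor recruitment is measured by adding terbium-labeled anti-His antibody and FITC SMRT-ID2 peptide, at 5 and 200 nM final, after a 20-minute room-temperature protein–compound incubation. After one further hour, signal is converted to percent response between DMSO and 500 nM T0070907 wells.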

The next assay deals with UM-UC-9 engineered cells. The experiment in a line: Cell proliferation / short-term viability assay, CellTiter-Glo 144 h. In kind it is cell-based, human. As to conditions: read-out: CTGlo 144 h UMUC9.5, G150. An outline of the steps:
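Viability read by CellTiter-Glo 2.0 luminescence at day 7 versus DMSO-vehicle wells and a T0 plate measured on day 0. Cells: UM-UC-9 engineered assay-ready stocks, 500 cells/well in high-glucose DMEM with 10% FBS, 37° C, 5% CO2.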
(In general: In ATP-based viability assays light output follows the ATP content of the culture.)

Read-outs that look alike come from different tables or passages of the source. Bounds are passed on as bounds.

With `Cc1cc(-c2cc(C(=O)N3[C@@H]4CC[C@H]3C[C@H](C(=O)N[C@H]3CC[C@@](O)(C(F)(F)F)CC3)C4)n[nH]2)ncn1` [Example 279, (1R,3s,5S)—N-((1r,4R)-4-hydroxy-4-(trifluoromethyl)cyclohexyl)-8-(5-(6-methylpyrimidin-4-yl)-1H-pyrazole-3-carbonyl)-8-azabicyclo[3.2.1]octane-3-carboxamide], the AC50 on His6-TEV-PPARγ-(234-505) turned out to be 24.6 nM. The IC50 in the assay with UM-UC-9 engineered cells (Homo sapiens, UM-UC-9, 144 h) is 290 nM.
The matching figures for `COc1cc(-c2cc(C(=O)N3CCC(C(=O)NCc4ccc5cc[nH]c5c4)CC3)n[nH]2)c(Cl)cn1` [Example 188, N-((1H-indol-6-yl)methyl)-1-(5-(5-chloro-2-methoxypyridin-4-yl)-1H-pyrazole-3-carbonyl)piperidine-4-carboxamide]: 79.8 nM and 211 nM.
The matching figures for `COc1cc(-c2cc(C(=O)N3CCC(C(=O)NCc4ccc5cnccc5c4)CC3)n[nH]2)c(Cl)cn1` [Example 182, 1-(5-(5-chloro-2-methoxypyridin-4-yl)-1H-pyrazole-3-carbonyl)-N (isoquinolin-6-ylmethyl)piperidine-4-carboxamide]: 422 nM and 1600 nM.
In the same order, the values of `COc1cc(-c2cc(C(=O)N3[C@@H]4CC[C@H]3C[C@H](C(=O)NC3CC[Si](C)(C)CC3)C4)n[nH]2)c(F)cn1` [Example 291, (1R,3s,5S)—N-(1,1-dimethylsilinan-4-yl)-8-(5-(5-fluoro-2-methoxypyridin-4-yl)-1H-pyrazole-3-carbonyl)-8-azabicyclo[3.2.1]octane-3-carboxamide] are 69.6 nM and 150 nM.
With `COc1cc(-c2cc(C(=O)N3CCC(C(=O)NC4CCN(C5COC56CNC6)C4)CC34CC4)n[nH]2)c(F)cn1` (mixture of isomers) [Example 461], at His6-TEV-PPARγ-(234-505), the AC50 turned out to be 440 nM. The IC50 in the assay with UM-UC-9 engineered cells is over 10000 nM.
Consider `COc1cc(-c2cc(C(=O)N3CC[C@H](C(=O)NC4CCC5(CCCN5C5COC5)CC4)CC34CC4)n[nH]2)c(F)cn1` (stereo partly drawn) [Example 349, (S)-4-(5-(5-fluoro-2-methoxypyridin-4-yl)-1H-pyrazole-3-carbonyl)-N-(1-(oxetan-3-yl)-1-azaspiro[4.5]decan-8-yl)-4-azaspiro[2.5]octane-7-carboxamide], for which the AC50 at His6-TEV-PPARγ-(234-505) came out at 187 nM. In addition, the IC50 in the assay with UM-UC-9 engineered cells (Homo sapiens, UM-UC-9, 144 h) was found to be 836 nM.
On to “(S)—N—((S)-3,4-dihydro-2H-pyrano[3,2-b]pyridin-4-yl)-4-(5-(5-fluoro-2-methoxypyridin-4-yl)-1H-pyrazole-3-carbonyl)-4-azaspiro[2.5]octane-7-carboxamide and (S)—N—((R)-3,4-dihydro-2H-pyrano[3,2-b]pyridin-4-yl)-4-(5-(5-fluoro-2-methoxypyridin-4-yl)-1H-pyrazole-3-carbonyl)-4-azaspiro[2.5]octane-7-carboxamide [Example 366]”, for which, on His6-TEV-PPARγ-(234-505), the AC50 was determined as 28.8 nM. Besides, the IC50 in the assay with UM-UC-9 engineered cells was found to be 41.4 nM.
For the compound `COc1cc(-c2cc(C(=O)N3CCC(C(=O)NCC4CC(F)(F)C4)CC3)n[nH]2)c(Cl)cn1` [Example 148, 1-(5-(5-chloro-2-methoxypyridin-4-yl)-1H-pyrazole-3-carbonyl)-N-((3,3-difluorocyclobutyl)methyl)piperidine-4-carboxamide], the AC50 on His6-TEV-PPARγ-(234-505) worked out at 712 nM. For the same compound, the IC50 in the assay with UM-UC-9 engineered cells (Homo sapiens, UM-UC-9, 144 h) was determined as 3170 nM.
The matching figures for `COc1cc(-c2cc(C(=O)N3CC[C@H](C(=O)NCc4ncc(F)cn4)CC34CC4)[nH]n2)c(F)cn1` [Example 512, (S)-4-(3-(5-fluoro-2-methoxypyridin-4-yl)-1H-pyrazole-5-carbonyl)-N-((5-fluoropyrimidin-2-yl)methyl)-4-azaspiro[2.5]octane-7-carboxamide]: 11.2 nM and 97.2 nM.
The matching figures for `COc1cc(-c2cc(C(=O)N3CCC(C(=O)NC4c5ccccc5OCC4OC)CC3)n[nH]2)c(Cl)cn1` (mixture of isomers) [Example 252, 1-(5-(5-chloro-2-methoxypyridin-4-yl)-1H-pyrazole-3-carbonyl)-N-(3-methoxychroman-4-yl)piperidine-4-carboxamide]: 182 nM and 1150 nM.
As to `COc1cc(-c2cc(C(=O)N3CC[C@H](C(=O)NC4CCC5CCCN5C4)CC34CC4)n[nH]2)c(F)cn1` (single isomer, unassigned) [Example 376-B], the AC50 at His6-TEV-PPARγ-(234-505) was 1600 nM. Besides, the IC50 in the assay on UM-UC-9 engineered cells came to 3880 nM.
The matching figures for `COc1cc(-c2cc(C(=O)N3CC[C@H](C(=O)NC4CCN(c5cnnc(C)c5)C4)CC34CC4)n[nH]2)c(F)cn1` (single isomer, unassigned) [Example 452-B]: 142 nM and over 10000 nM.
As to `CCO[C@]1(C(F)(F)F)CC[C@@H](NC(=O)[C@@H]2CCN(C(=O)c3cc(-c4cc(C)ncn4)[nH]n3)C3(CC3)C2)CC1` (single isomer, unassigned) [Example 308-E], on His6-TEV-PPARγ-(234-505), the AC50 came to 635 nM. Moreover, the IC50 in the assay with UM-UC-9 engineered cells (Homo sapiens, UM-UC-9, 144 h) worked out at 2560 nM.
Take `COc1cc(-c2cc(C(=O)N3CC[C@H](C(=O)NC4CN(C5CCOC5)C4)CC34CC4)n[nH]2)c(F)cn1` (single isomer, unassigned) [Example 433-B]: the AC50 at His6-TEV-PPARγ-(234-505) was determined as 61.1 nM. In addition, the IC50 with UM-UC-9 engineered cells came to 249 nM.
The matching figures for `COc1cc(-c2cc(C(=O)N3CC[C@H](C(=O)NC(C)C45CCC(O)(CC4)CC5)CC34CC4)n[nH]2)c(F)cn1` (single isomer, unassigned) [Example 411-A]: 160 nM and 527 nM.
The matching figures for `COc1cc(-c2cc(C(=O)N3CCC(C(=O)NCC4CCc5[nH]ncc5C4)CC34CC4)n[nH]2)c(F)cn1` (single isomer, unassigned) [Example 341-A]: 6.1 nM and 6.6 nM.
As for `COc1cc(-c2cc(C(=O)N3CCC(C(=O)NCc4nccc(C(F)(F)F)n4)CC3)n[nH]2)c(Cl)cn1` [Example 209, 1-(5-(5-chloro-2-methoxypyridin-4-yl)-1H-pyrazole-3-carbonyl)-N-((4-(trifluoromethyl)pyrimidin-2-yl)methyl)piperidine-4-carboxamide], at His6-TEV-PPARγ-(234-505), the AC50 was 319 nM. Moreover, the IC50 with UM-UC-9 engineered cells (Homo sapiens, UM-UC-9, 144 h) stood at 2370 nM.
In the same order, the values of `COc1cc(-c2cc(C(=O)N3CCC(C(=O)NC4CCN(c5ccccc5)C4=O)CC3)n[nH]2)c(Cl)cn1` (racemic) [Example 207, 1-(5-(5-chloro-2-methoxypyridin-4-yl)-1H-pyrazole-3-carbonyl)-N-(2-oxo-1-phenylpyrrolidin-3-yl)piperidine-4-carboxamide] are 889 nM and 5670 nM.
Consider `COc1cc(-c2cc(C(=O)N3CC[C@H](C(=O)NC4CC5CCC(C4)O5)CC34CC4)n[nH]2)c(F)cn1` (stereo partly drawn) [Example 354, (7S)—N-(8-oxabicyclo[3.2.1]octan-3-yl)-4-(5-(5-fluoro-2-methoxypyridin-4-yl)-1H-pyrazole-3-carbonyl)-4-azaspiro[2.5]octane-7-carboxamide], for which, on His6-TEV-PPARγ-(234-505), the AC50 is 24.1 nM. In addition, the IC50 with UM-UC-9 engineered cells (Homo sapiens, UM-UC-9, 144 h) came out at 28.6 nM.
Take `COc1cc(-c2cc(C(=O)N3CC[C@H](C(=O)NCc4c(C(F)(F)F)cnn4C)CC34CC4)[nH]n2)c(F)cn1` [Example 507, (S)-4-(3-(5-fluoro-2-methoxypyridin-4-yl)-1H-pyrazole-5-carbonyl)-N-((1-methyl-4-(trifluoromethyl)-1H-pyrazol-5-yl)methyl)-4-azaspiro[2.5]octane-7-carboxamide]: at His6-TEV-PPARγ-(234-505), the AC50 is 17.4 nM. The IC50 with UM-UC-9 engineered cells (Homo sapiens, UM-UC-9, 144 h) was 14.1 nM.
Consider `COc1cc(-c2cc(C(=O)N3CCC(C(=O)NC4COCc5ccccc54)CC3)n[nH]2)c(Cl)cn1` (racemic) [Example 132, 1-(5-(5-chloro-2-methoxypyridin-4-yl)-1H-pyrazole-3-carbonyl)-N-(isochroman-4-yl)piperidine-4-carboxamide], for which the AC50 on His6-TEV-PPARγ-(234-505) came out at 24.6 nM. Moreover, the IC50 in the assay on UM-UC-9 engineered cells (Homo sapiens, UM-UC-9, 144 h) came out at 136 nM.
Turning to `COc1cc(-c2[nH]nc(C(=O)N3CCC(C(=O)NC4CCC(C)CC4)CC3)c2Cl)ccn1` (single isomer, unassigned) [Example 110-B], the AC50 at His6-TEV-PPARγ-(234-505) (listed as 110b) turned out to be 217 nM. Besides, the IC50 with UM-UC-9 engineered cells (listed as 110b) was determined as 697 nM.
In the case of `COc1cc(-c2cc(C(=O)N3CCC(C(=O)NC4CCN(c5ncc(C#N)cn5)C4)CC34CC4)n[nH]2)c(F)cn1` (mixture of isomers) [Example 472, (S)—N—((R)-1-(5-cyanopyrimidin-2-yl)pyrrolidin-3-yl)-4-(5-(5-fluoro-2-methoxypyridin-4-yl)-1H-pyrazole-3-carbonyl)-4-azaspiro[2.5]octane-7-carboxamide and (S)—N—((S)-1-(5-cyanopyrimidin-2-yl)pyrrolidin-3-yl)-4-(5-(5-fluoro-2-methoxypyridin-4-yl)-1H-pyrazole-3-carbonyl)-4-azaspiro[2.5]octane-7-carboxamide], at His6-TEV-PPARγ-(234-505), the AC50 came to 2.9 nM. Further, the IC50 in the assay on UM-UC-9 engineered cells is 24.2 nM.
In the case of `COc1cc(-c2cc(C(=O)N3CC[C@H](C(=O)NCC45CCC(O)(CC4)CC5)CC34CC4)n[nH]2)c(F)cn1` (single isomer, unassigned) [Example 313-B], the AC50 on His6-TEV-PPARγ-(234-505) came out at 3.5 nM. Besides, in the assay with UM-UC-9 engineered cells (Homo sapiens, UM-UC-9, 144 h), the IC50 is 13.9 nM.

(Values after patent publication US12606541B2, “PPARg modulators and methods of use” (Eisai R&D Management Co., Ltd., priority 2020, dated 2026).)
